Results: BindingDB's records for patent US11161844 (PFIZER INC., 2021)

What was measured:
[1] = target: Leucine-rich repeat serine/threonine-protein kinase 2 (Homo sapiens, UniProt Q5S007); experiment: LRRK2 Assay
Protocol: (§1) LRRK2 kinase activity was measured using Lantha Screen technology from Invitrogen. GST-tagged truncated LRRK2 from Invitrogen (Cat #PV4874) was incubated with a fluorescein-labeled peptide substrate based upon ezrin/radixin/moesin (ERM), also known as LRRKtide (Invitrogen cat #PR8976A), in the presence of a dose response of compound. Upon completion, the assay was stopped and detected with a terbium labeled anti-phospho-ERM antibody (Invitrogen, cat #PR8975A). The assay was carried out under the following protocol: The compound dose response was prepared by diluting compound to a top concentration of 0.3 mM in 100% DMSO and serial diluted by half-log in DMSO to give an 11 point curve, 100× final assay concentration. Using Echo acoustic dispensing, 60 nL of compound was transferred to a low volume Corning 384-well assay plate. 3 μL of a working solution of substrate (200 nM LRRKtide, 2 mM ATP) prepared in assay buffer (50 mM HEPES, pH 7.5, 3 mM MgCl2, with 2 mM DTT and 0.01% Brij35 added fresh) was added to the 60 nL compound assay plate. The kinase reaction was started with 3 μL of a working solution of LRRK2 enzyme at a concentration of 4 μg/mL. The final reaction concentrations were 100 nM LRRKtide, 1 mM ATP, 2 μg/mL LRRK2 enzyme and a compound dose response with a top dose of 3 μM. The reaction was allowed to progress at room temperature for 30 minutes and then stopped with the addition of 6 μL of detection buffer (20 mM Tris pH 7.6, 0.01% NP-40, 6 mM EDTA with 2 nM terbium labeled anti-phospho-ERM). After an incubation of 1 hour at room temperature, the plate was read on an Envision with an excitation wavelength of 340 nm and a reading emission at both 520 nm and 495 nm. The ratio of the 520 nm and 495 nm emission was used to analyze the data. Inhibition of mutant G2019S LRRK2 (Invitrogen cat #PV4881) was measured in the exact same method. All final concentrations of substrate ATP and enzyme were the same.

[2] = target: Leucine-rich repeat serine/threonine-protein kinase 2 [G2019S] (Homo sapiens, UniProt Q5S007, G2019S); experiment: LRRK2 Assay
Chain of Leucine-rich repeat serine/threonine-protein kinase 2 [G2019S] (Q5S007 whole entry G2019S): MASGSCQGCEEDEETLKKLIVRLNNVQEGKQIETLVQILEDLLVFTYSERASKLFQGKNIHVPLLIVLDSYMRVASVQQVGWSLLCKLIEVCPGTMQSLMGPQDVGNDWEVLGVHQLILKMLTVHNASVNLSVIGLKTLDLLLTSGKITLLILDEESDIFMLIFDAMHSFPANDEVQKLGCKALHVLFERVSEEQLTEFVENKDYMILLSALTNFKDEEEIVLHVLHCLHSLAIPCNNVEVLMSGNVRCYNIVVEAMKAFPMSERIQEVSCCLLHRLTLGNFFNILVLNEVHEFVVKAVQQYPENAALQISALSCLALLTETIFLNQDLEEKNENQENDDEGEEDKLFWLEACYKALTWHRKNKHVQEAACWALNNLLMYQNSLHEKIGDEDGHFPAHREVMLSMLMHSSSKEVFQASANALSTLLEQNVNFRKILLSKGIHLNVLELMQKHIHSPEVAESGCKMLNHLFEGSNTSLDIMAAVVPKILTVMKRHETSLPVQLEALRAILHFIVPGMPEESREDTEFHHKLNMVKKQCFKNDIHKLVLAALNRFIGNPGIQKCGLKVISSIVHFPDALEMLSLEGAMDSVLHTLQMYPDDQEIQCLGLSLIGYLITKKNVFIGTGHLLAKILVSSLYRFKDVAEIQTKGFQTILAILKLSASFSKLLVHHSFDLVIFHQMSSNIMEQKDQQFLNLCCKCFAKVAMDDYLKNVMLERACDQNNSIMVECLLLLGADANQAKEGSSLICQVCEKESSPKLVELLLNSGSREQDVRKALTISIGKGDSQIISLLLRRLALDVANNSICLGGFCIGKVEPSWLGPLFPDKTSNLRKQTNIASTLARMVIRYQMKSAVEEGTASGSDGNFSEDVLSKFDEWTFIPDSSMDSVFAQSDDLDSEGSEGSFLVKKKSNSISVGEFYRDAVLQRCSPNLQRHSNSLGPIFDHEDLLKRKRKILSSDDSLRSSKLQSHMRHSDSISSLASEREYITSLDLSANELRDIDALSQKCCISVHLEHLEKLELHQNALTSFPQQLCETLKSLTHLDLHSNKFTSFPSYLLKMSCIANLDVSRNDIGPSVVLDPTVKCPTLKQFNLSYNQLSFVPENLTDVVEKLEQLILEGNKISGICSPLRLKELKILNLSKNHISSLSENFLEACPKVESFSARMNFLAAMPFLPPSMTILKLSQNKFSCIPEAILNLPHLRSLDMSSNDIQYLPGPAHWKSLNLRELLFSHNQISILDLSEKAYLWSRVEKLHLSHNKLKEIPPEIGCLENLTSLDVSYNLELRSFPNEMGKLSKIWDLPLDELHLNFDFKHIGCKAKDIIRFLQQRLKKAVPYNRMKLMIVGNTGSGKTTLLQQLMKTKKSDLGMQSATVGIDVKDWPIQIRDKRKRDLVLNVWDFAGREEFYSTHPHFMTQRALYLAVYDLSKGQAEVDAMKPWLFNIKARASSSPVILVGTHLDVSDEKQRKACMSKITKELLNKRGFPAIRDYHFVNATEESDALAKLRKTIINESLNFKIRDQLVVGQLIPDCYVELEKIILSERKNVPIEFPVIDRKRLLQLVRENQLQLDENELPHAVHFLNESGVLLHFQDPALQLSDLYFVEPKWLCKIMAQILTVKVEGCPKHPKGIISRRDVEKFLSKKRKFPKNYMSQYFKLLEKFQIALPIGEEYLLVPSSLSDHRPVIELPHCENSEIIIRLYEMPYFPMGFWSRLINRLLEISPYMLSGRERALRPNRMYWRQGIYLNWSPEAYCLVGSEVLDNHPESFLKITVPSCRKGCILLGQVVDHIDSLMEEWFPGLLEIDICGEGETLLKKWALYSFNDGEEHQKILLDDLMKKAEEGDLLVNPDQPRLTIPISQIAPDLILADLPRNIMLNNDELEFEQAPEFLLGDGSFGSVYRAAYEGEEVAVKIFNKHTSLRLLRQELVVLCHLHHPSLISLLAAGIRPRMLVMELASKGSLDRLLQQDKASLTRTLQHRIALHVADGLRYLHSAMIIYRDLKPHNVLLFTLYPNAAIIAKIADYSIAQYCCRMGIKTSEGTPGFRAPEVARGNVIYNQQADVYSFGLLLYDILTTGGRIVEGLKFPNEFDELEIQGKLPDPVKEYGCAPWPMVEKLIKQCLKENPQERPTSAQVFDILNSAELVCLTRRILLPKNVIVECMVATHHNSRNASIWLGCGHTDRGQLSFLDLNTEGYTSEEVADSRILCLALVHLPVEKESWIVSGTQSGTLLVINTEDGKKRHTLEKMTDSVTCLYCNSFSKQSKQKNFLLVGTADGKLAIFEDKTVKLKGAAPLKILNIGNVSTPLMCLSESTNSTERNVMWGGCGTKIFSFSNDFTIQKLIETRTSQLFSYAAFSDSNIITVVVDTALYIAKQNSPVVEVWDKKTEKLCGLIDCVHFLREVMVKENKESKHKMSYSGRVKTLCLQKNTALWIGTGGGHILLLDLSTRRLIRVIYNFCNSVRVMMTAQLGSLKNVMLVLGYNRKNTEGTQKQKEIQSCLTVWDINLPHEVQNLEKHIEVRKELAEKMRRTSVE
Protocol: as §1

Chain of Leucine-rich repeat serine/threonine-protein kinase 2 (Q5S007 whole entry, the tested form may be a part): as the sequence (Q5S007 whole entry G2019S) above, with S2019G counted along it

| SMILES | IC50 [1] | IC50 [2] |
| --- | --- | --- |
| C[C@@H]1C[C@H](n2c(C3CCC(F)C3)nc3cnc4ccc(F)cc4c32)CCO1 (single isomer, unassigned) [US11161844, Example 37] | 5.68 nM |  |
| C[C@@H]1CC(n2c(C3CC(C)(F)C3)nc3cnc4ccc(F)cc4c32)CCO1 (stereo partly drawn) [US11161844, Example 31] | 22 nM | 15.8 nM |
